We go through 9 compounds from patent US5124325A, “Therapeutic agents of metabolic bone disease” (Kyorin Pharmaceutical Co., Ltd., priority 1989, dated 1992).

Experiment [1] deals with bone resorption. Description: Inhibition of bone resorption (45Ca release from prelabeled rat embryonic limb bones stimulated with IL-1β). Type of experiment: cell-based, rat (SD). The conditions noted are these: 25 μg/ml, 45Ca prelabeled rat embryonic limb bone, 72 hours culture. The protocol: ^45 Ca prelabeled rat embryonic limbs for the measurement of bone resorption were prepared by the method of Raisz (J. Clin. Invest. 44, 103 (1965)). Briefly, 17th day pregnant SD rats were injected subcutaneously with 200 μCi of calcium-45 as calcium chloride. Two days later, the rats were killed, the embryos removed and washed with sterilized phosphated buffer solution (PBS). The forelimbs were dissected free of muscle and the cartilagious ends were cut off. The bone shaft was cultured with BGJb medium containing 20% bovine serum albumin (BSA).
The effect of each example compound of this invention on bone resorption was assessed by the method of Tsuda et al (J. Bone & Mineral Res. 1, 207 (1986)) with slight modification. Briefly, the trimmed bone was precultured for 24 hours at 37 ° C. and in an atmosphere of 5% CO2 in air on a millipore filter immersed in 0.6 ml of BGJb medium containing 20% BSA. 24-well plate was used for culture. The bone on the filter was then transferred to a new well filled with the medium containing the compounds of this invention with or without […] and cultured for 72 hours. 0.3 ml of the supernatant was collected and used to determine the ^45 Ca release from the bone. The bone was immersed in 0.3 ml of 1 N HCl for not less than 90 minutes, and 10 ml of ACS II scintillator was added so as to measure the radioactivity in a liquid scintillation counter. The activity of bone resorption was expressed as percent of ^45 Ca release to supernatant from labeled bone (sum of the radioactivity of the bone and the medium). One bone was cultured on one well and each experimental group consisted of 5 or 6 bones derived from fetus in one pregnant rat. The activity of bone resorption was determined by the formula.
U: ^45 Ca release without adding IL-1β
C: ^45 Ca release by adding IL-1β
T: ^45 Ca release by adding IL-1β and example compound

The subject of experiment [2] is bone resorption. The conditions noted are these: It has been reported; cited from earlier work.

A word on the inhibition: it is the drop in the measured response relative to a control, in per cent. Take `O=C(O)c1cccc2c1NC(c1ccc(O)cc1)CC2` (stereo not shown) [Compound 6]: the inhibition at 25 µg/mL with bone resorption [1] was 70%.

`Cc1ccc(S(=O)(=O)Nc2cc3c(c(C(=O)O)c2)NC(c2ccccc2)CC3)cc1` (stereo not shown) [Compound 7, 2-Phenyl-6-p-toluenesulfonylamino-1,2,3,4-tetrahydroquinoline-8-carboxylic acid]: the inhibition at 25 µg/mL in the experiment with bone resorption [1] was 80%.

With `O=C(O)c1cc(Cl)cc2c1NCCC2` [Compound 4], in the experiment on bone resorption [1], the inhibition at 25 µg/mL worked out at 76%.

Take `O=C(O)c1cccc2c1NC(c1ccccc1)CC2` (stereo not shown) [Compound 2]: in the experiment on bone resorption [1], the inhibition at 25 µg/mL came to 113%.

Consider `O=C(O)c1cc([N+](=O)[O-])cc2c1NCCC2` [Compound 3], for which, in the experiment on bone resorption [1], the inhibition at 25 µg/mL was 100%.

For the compound `CC(C)Oc1ccc(C2CCc3cccc(C(=O)O)c3N2)cc1` (stereo not shown) [Compound 8, 2-(4-Isopropoxyphenyl)-1,2,3,4-tetrahydroquinoline-8-carboxylic acid], the inhibition at 25 µg/mL with bone resorption [1] was determined as 92%.

With `O=C(O)c1cccc2c1NCC(c1ccccc1)C2` (stereo not shown) [Compound 5], the inhibition at 25 µg/mL in the experiment on bone resorption [1] was found to be 103%.

Regarding `O=C(O)c1cc(Cl)cc2c1NC(c1ccccc1)CC2` (stereo not shown) [Compound 1, 6-Chloro-2-phenyl-1,2,3,4-tetrahydroquinoline-8-carboxylic acid], in the experiment on bone resorption [1], the inhibition at 25 µg/mL turned out to be 74%.

Regarding `CC(C)Oc1ccc2c(=O)c(-c3ccccc3)coc2c1` [Ipriflavone, 7-isopropoxyisoflavone, reference compound], in the experiment on bone resorption [2], the “inhibitory effect on bone resorption (in words)” value is on record as “have inhibitory effect on bone resorption”. Further, the inhibition at 25 µg/mL in the experiment with bone resorption [1] was 58%.
